The text below walks through data of article PMC4240550 (PLoS ONE, 2014).

Values joined by “and” are separate entries in the source; they are usually repeats but may differ in a detail not shown here. Identical values can stand only once. Like-named read-outs stand apart in the source and are kept apart here.

In assay [1] the target is T1, LecB (Pseudomonas aeruginosa, UniProt Q9HYN5). The conditions noted are these: for N: ITC stoichiometry; for difference in Kd / binding affinity from the equatorial methyl group: microcalorimetry, vs analog lacking the methyl group (4 vs 5; 3 vs 7).
The target in assay [2] is T1, LecB. Particulars: ITC; cited from earlier work. In general terms: Isothermal titration calorimetry measures the heat released or taken up as one component is titrated into another.
Assay [3] has as its target T1, LecB. The experiment in a line: biochemical.
Assay [4] concerns the target T1, LecB. The experiment in a line: biochemical. The class given is binding. Particulars: IC50, fluorescence polarization, TBS/Ca pH 7.4; mean ± SD of minimum three independent measurements of triplicates. (In general: Polarisation of emitted light reports the rotation of a fluorescent probe.)
The mark [5] stands for this setting: validation titration of LecB (56.1 µM) with 1 (700 µM).
[6] abbreviates: 25°C, mean ± SD of minimum three titrations (5: indirect titration with 3, two titrations).
[7] abbreviates: mean ± SD of minimum three titrations (5: indirect titration with 3, two titrations).

T1 sequence (Q9HYN5 entry or part of it): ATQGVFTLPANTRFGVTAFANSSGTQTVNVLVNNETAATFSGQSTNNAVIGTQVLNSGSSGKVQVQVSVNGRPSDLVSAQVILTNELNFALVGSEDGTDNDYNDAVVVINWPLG

For `CO[C@@H]1O[C@@H](C)[C@@H](O)[C@@H](O)[C@@H]1O` [compound 1, methyl α-L-fucoside, reference compound], the “difference in Gibbs energy” value in assay [1] (methyl α-L-fucoside (1) compared with 1-deoxy L-fucose (3)) is -0.359 kcal/mol. In assay [1] (setting [5]), this compound showed a ΔG of -8.525 kcal/mol and a ΔH of -9.257 kcal/mol. For the same compound, in assay [2], the “-TΔS” value is 1.17 kcal/mol and the ΔH is -9.87 kcal/mol.

For `CO[C@H]1O[C@H](CO)[C@@H](O)[C@H](O)[C@@H]1O` [compound 2, methyl α-D-mannoside], in assay [2], the “-TΔS” value was -1.41 kcal/mol and the ΔH was -4.25 kcal/mol.

For `CC1OCC(O)C(O)C1O` [compound 3, 1-deoxy L-fucose], in assay [1] (setting [6]), the “-TΔS” value was 0.327 ± 0.263 kcal/mol, the ΔG is -8.34 ± 0.072 kcal/mol and the ΔH was -8.68 ± 0.22 kcal/mol. In assay [1] (setting [7]), this compound returned an N of 1.07 ± 0.03. Also, the “difference in Kd / binding affinity from the equatorial methyl group” value in assay [1] is on record as 4- to 6 fold. The affinity in assay [3], expressed as Kd, was 0.77 ± 0.1 µM. Moreover, the IC50 (commonly the concentration at which inhibition is half-maximal) in assay [4] was determined as 1.6 ± 0.7 µM.

For the compound `C[C@@H]1O[C@H](CO)[C@@H](O)[C@H](O)[C@@H]1O` [compound 4, β-L-fucopyranosyl methanol], in assay [1] (setting [6]), the “-TΔS” value is -0.588 ± 0.335 kcal/mol, the ΔG is -6.57 ± 0.239 kcal/mol and the ΔH is -5.98 ± 0.382 kcal/mol. The N in assay [1] (setting [7]) stood at 0.86 ± 0.1. Besides, in assay [1], the “difference in Kd / binding affinity from the equatorial methyl group” value is listed as 4- to 6 fold. Moreover, in assay [3], the Kd (in general, the free concentration of one partner at which half of the binding sites on the other are occupied at equilibrium, for simple one-to-one binding) amounted to 16.1 µM. In addition, in assay [4], the IC50 was 23 µM and 22.9 µM.

Regarding `OC[C@H]1OC[C@@H](O)[C@@H](O)[C@@H]1O` [compound 5, 1-deoxy D-mannose], in assay [1] (setting [6]), the “-TΔS” value was -1.41 ± 0.382 kcal/mol, the ΔG is -5.69 ± 0.22 kcal/mol and the ΔH is -4.28 ± 0.14 kcal/mol. The N in assay [1] (setting [7]) is 0.87 ± 0.18. The compound further registered a Kd in assay [3] of 69.1 ± 25 µM. In addition, in assay [4], half-maximal inhibition (IC50) required 104 µM.

Turning to `C[C@@H]1O[C@H](C)[C@@H](O)[C@H](O)[C@@H]1O` [compound 6, β-L-fucopyranosyl methane], in assay [1] (setting [6]), the “-TΔS” value was -0.308 ± 0.43 kcal/mol, the ΔG was -6.5 ± 0.072 kcal/mol and the ΔH was -6.19 ± 0.382 kcal/mol. In assay [1] (setting [7]), the N amounted to 0.86 ± 0.2. The Kd in assay [3] was 16.9 ± 1.9 µM. The IC50 in assay [4] is 21 µM and 20.6 µM.

For `OC1[C@H](O)COC[C@H]1O` [compound 7, 1-deoxy D-arabinose], in assay [1] (setting [6]), the “-TΔS” value was found to be 1.14 ± 0.574 kcal/mol, the ΔG was -7.29 ± 0.072 kcal/mol and the ΔH is -8.44 ± 0.574 kcal/mol. Besides, the N in assay [1] (setting [7]) is on record as 0.81 ± 0.1. In assay [3], this compound returned a Kd of 4.46 ± 0.7 µM. For the same compound, in assay [4], the IC50 was 9.7 µM and 9.65 µM.

Consider `CO[C@@H]1OC[C@@H](O)[C@@H](O)[C@@H]1O` [compound 13, methyl β-D-arabinoside], for which, in assay [2], the “-TΔS” value was 1.29 kcal/mol, the Kd is 1.7 µM, the ΔG was -7.89 kcal/mol and the ΔH is -9.06 kcal/mol. Further, the IC50 in assay [4] was 3.4 µM.
